One data set relates to neuroblastoma cells. Nature of the data set: Cell proliferation (cell counting). The following applies: 1 μM NEN vs DMSO. It counts as cell-based. As to the method:
Cell proliferation and clonogenic assay. 2×10^4 cells were seeded in 12 well-plate and allowed to attached overnight. […] After treatment, cells were counted using hemocytometer.

In the next data set the test system is NB16 cells. In words: Western blot of β-catenin and p53. In kind it is cell-based. The following applies: NB16, 1 μM NEN 24 and 48 hrs. As to the method:
(§1) Protein extraction and immunoblot. Cells were washed with ice-cold PBS buffer (Invitrogen, 20012050) and lysed with harvest buffer (10 mM Hepes pH 7.9, 50 mM NaCl, 500 mM sucrose, 0.1 mM EDTA and 0.5% Trition X-100) supplemented with 1% Halt inhibitors (Thermo Scientific™, 78443) for 10 minutes. Cell lysate was centrifuged at 3000 rpm for 3 min at 4° C. The supernatant containing cytosolic proteins was transferred to a different tube. The pellet containing nuclear proteins was dissolved with nuclear lysis buffer (10 mM Hepes pH 7.9, 0.5M NaCl, 0.1 mM EDTA, 0.1 mM EGTA and 0.1% NP40) supplemented with 1% Halt inhibitors (Thermo Scientific™, 78443) for 5 minutes at 4° C. Then the solution was sonicated at 4° C. for 6 cycles (1 cycle=30 s sonication and 30 s cooldown with “High” energy intensity) using a Bioruptor® Plus sonication (Diagenode, UCD-300). After sonication, the solution was centrifuged at 15,000 rpm for 10 minutes. The supernatant was kept as nuclear extraction. Protein concentration was determined by BCA assay (Thermo Scientific, 23227). 5 μg nuclear proteins or 7.5 μg cytosolic proteins were boiled in loading buffer with reducing reagents (Invitrogen, NuPAGE™ LDS Sample Buffer (4X), NP0007), then separated with SDS-PAGE (Nupage™ 4-12% Bis-Tris Protein Gels, 1.0 mm, Invitrogen™, NP0322BOX). Protein was transferred onto a nitrocellulose membrane (Thermo Scientific™, 88018). After blocking in 5% non-fat milk for 30 minutes at room temperature (RT), the primary antibody was added for incubation overnight at 4° C. After washing with TBST (CST, #9997, 1:10 diluted by deionized water) for 3 times, HRP-conjugated secondary antibodies were applied. Signals were detected with an ECL kit (Thermo Scientific™, 34577) by using BioRad Universal Hood II.

Data set [1] relates to SK-N-BE(2) cells. In words: Western blot of β-catenin and p53. In kind it is cell-based. The following applies: 1 μM NEN 24 and 48 hrs. The method, then:
as §1

The test system of data set [2] is SK-N-BE(2) cells. In words: Proliferation after hypoxia pretreatment and replating. In kind it is cell-based. The settings on record: 1 μM NEN under hypoxia 4 days, replated under normoxia, counted after 5 days. The method, then: Cell proliferation and clonogenic assay. 2×10^4 cells were seeded in 12 well-plate and allowed to attached overnight. Then the cells were treated with various conditions as indicated for 48 h or 96 h (n=3). After treatment, cells were counted using hemocytometer.

The nature of data set [3]: Plasma and tissue NEN levels under dietary NEN supplementation (LC/MS). It counts as in vivo. The settings on record: mice, diet that contains 2000 ppm NEN. The method, then:
Metabolic analysis. For the metabolomics and isotope tracing analysis in vitro, cells were washed with cold PBS, lysed in 80% Ultra LC-MS acetonitrile on ice for 15 minutes, centrifuged at 20,000 g for 10 minutes at 4° C., and supernatant was subjected to mass spectrometry analysis. For the metabolomics analysis in vivo, 10-20 mg tissue were cut off on ice, rinsed if necessary to remove blood, and place in a 2 ml round-bottom cryovial. The tissues were homogenized by 3 times 10 s on/off bursts homogenization in 1 ml 80% methanol on dry ice. Transfer the homogenate to an Eppendorf tube and keep on liquid nitrogen while processing the remaining samples. Incubated all the samples in −80° C. for 30 minutes. After incubation, vortexed the samples for 5 seconds. Then centrifuged the samples at 20,000 g for 10 minutes at 4° C., and supernatant was subjected to mass spectrometry analysis. Resuspend the remaining cellular pellet in 100 ul protein lysis buffer and determine the protein concentration. Then calculate the total protein content per sample.
Liquid chromatography was performed using an Agilent 1290 Infinity LC system (Agilent, Santa Clara, US) coupled to a Q-TOF 6545 mass spectrometer (Agilent, Santa Clara, US). […]
Mouse orthotopic neuroblastoma model. […] Tumor formation was monitored by non-invasive ultrasound measurements, and the animals euthanized when the tumor volume exceeded 1,000 mm^3.

The test system of data set [4] is orthotopic neuroblastoma xenograft (SK-N-BE(2) cells). In words: H&E histology and immunohistochemistry of orthotopic tumors. In kind it is in vivo, mice. The following applies: diet 2000 ppm NEN vs control.

As for `O=C(Nc1ccc([N+](=O)[O-])cc1Cl)c1cc(Cl)ccc1O` [NEN, 5-chloro-N-(2-chloro-4-nitrophenyl)-2-hydroxybenzamide compound with 2-aminoethanol (1:1)], in the data set on neuroblastoma cells, the cell proliferation entry is “significantly inhibited”. For the same compound, in the data set on NB16 cells, the “expression of p53” value is recorded as “increased” and the “expression of β-catenin (nuclear protein)” value is listed as “reduced”. In addition, in the data set on SK-N-BE(2) cells [1], the “expression of p53” value was “increased” and the “expression of β-catenin (nuclear protein)” value is on record as “reduced”. The “gain of proliferation advantage from hypoxia pretreatment” value in the data set on SK-N-BE(2) cells [2] is on record as “blocked”. In addition, the “NEN accumulation in plasma” value in data set [3] fell in the range of 1 to 3 µM. For the same compound, in data set [4], the “N-Myc protein expression in xenografts (IHC)” value is “significantly reduced”, the “enlarged prominent nucleoli in tumor cells (H&E)” value is recorded as “much fewer” and the “β-catenin protein expression in xenografts (IHC)” value is “significantly reduced”.

The values above are taken from patent US11918550B2, “Sensitization of cancer cells to differentiation therapy with mitochondrial uncoupler niclosamide ethanolamine” (The Board of Trustees of the Leland Stanford Junior …, priority 2020, dated 2024).
